These are literature values, as cited in patent publication US20010051164A1, “1-0 ALKYLGLYCEROLS FOR PHARMACEUTICAL OR VETERINARY USE FOR PRESERVING AND/OR IMPROVING SPERM” (priority 1996, published 2001).

The test system of the data set is spermatozoons of various animal species and of man.

As for “1-O-alkyl-2-acetyl-sn-glycero-3-phosphocholine [PAF]”, the “power of fertilisation of ovocytes by treated spermatozoons” value (ovocytes of the rabbit and of the mouse) was “increases their power of fertilisation”. Besides, for the setting “various animal species and man”, the “motor function of the spermatozoons” value was “increases the motor function”.
